Patent US11235059B2, “Afucosylated anti-FGFR2IIIB antibodies” (Five Prime Therapeutics, Inc., priority 2013, dated 2022)

Assays:
[1] = test system: OCUM-2M human gastric cancer xenograft with FGFR2 amplification; test: OCUM-2M gastric cancer xenograft model; assay type: in vivo, CB17 SCID mice; details: for tumor response: 10 mg/kg intraperitoneal twice per week
Excerpt: Six week old female CB17 SCID mice were purchased from Charles River Laboratories (Wilmington, Mass.) and were acclimated for 1 week before the start of the study. Human gastric carcinoma cell line OCUM-2M or breast carcinoma cell line MFM-223 were used as the tumor models. OCUM-2M was purchased from Public University Corporation Osaka City University (OCU, Osaka, Japan), and MFM-223 was purchased from Culture Collections, Public Health England (98050130, HPA Culture Collections, Salisbury, UK). The cells were cultured for up to three passages in complete growth medium to expand for implantation. OCUM-2M and MFM-223 cells were cultured in Dulbecco's […] (DMEM) and Minimum Essential Medium (MEM), respectively. All medium was supplemented with 10% heat-inactivated Fetal Bovine Serum (FBS), 2 mM L-Glutamine, and Penicillin-Streptomycin solution. Cells were grown at 37° C. in a humidified atmosphere with 5% CO2.
When the cultured cells reached 85-90% confluence, cells were harvested and resuspended in cold Ca^2+ and Mg^2+ free phosphate buffered saline (PBS) containing 50% Matrigel (BD BioSciences, San Jose, Calif.). OCUM-2M cells were implanted subcutaneously over the right flank of the mice at 5×10^5 cells/100 μl/mouse. MFM-223 cells were implanted subcutaneously over the right flank of the mice at 5×10^5 cells/100 μl/mouse, and 0.72 mg 90-day release […] estradiol pellets (Innovative Research of America, Sarasota, Fla.) were inoculated subcutaneously into the right flank. Mice were monitored twice weekly following cell implantation for tumor growth. Tumor size was measured according to the formula: Tumor size (mm^3)=([…])/2. When MFM-223 tumors reached 80 mm^3 mice were sorted and randomized (n=10), and treatment was initiated. For OCUM-2M tumors, single therapy with anti-FGFR2b was initiated once tumors reached an average size of 100 mm^3, and combination therapy was initiated once tumors reached an average size of 250 mm^3.
(§1) Chemotherapeutic agents were administered via intraperitoneal injection twice per week at 12 mg/kg for paclitaxel, 2.3 mg/kg for fluorouracil (5-FU), and 33 mg/kg for cisplatin. Upon initiation of therapy, tumor sizes were measured in each mouse twice weekly. The length and width of each tumor was measured using calipers and the tumor size calculated according to the formula above. Mice were euthanized when the subcutaneous tumor volumes exceeded 2000 mm^3 or when the tumors became excessively necrotic.
Comparisons of tumor volume […] determined to be statistically significant if P<0.05. P-values were calculated using unpaired, two-tailed t-test analyses of the calculated tumor volumes on the final day upon which tumors were measured.

OCUM-2M cells [2] = test: ADCC assay, EC50 by curve fitting (Example 5); assay type: cell-based, human; details: E:T 25:1, 16 hours, percent specific lysis
Experimental: (§2) Ba/F3 FGFR2IIIb-expressing target cells were generated as described before. OCUM-2M cells were obtained from Osaka City University, Osaka, Japan. All cells were cultured using standard methods. Freshly isolated PMBC from healthy donors were obtained from AllCells, Emeryville, Calif.
(§3) ADCC assays were conducted using freshly isolated human PBMCs as effector cells at an effector to target (E:T) cell ratio of 25:1. The target cells were incubated for 16 hours in the presence of effectors and increasing concentrations of antibody. All conditions were tested in triplicate. Cytotoxicity was determined by quantifying LDH release as per the manufacturer's recommendations (Promega's CytoTox Non-Radioactive Cytotoxicity Assay). For the OCUM-2M cells, maximal lysis was determined in the presence of 5% Triton X-100, and spontaneous release was determined in the absence of antibody. Percentage of specific lysis was calculated as a percentage of maximal lysis less spontaneous release, as follows: (experimental−spontaneous release)/(maximal−spontaneous release)×100=% specific lysis. GraphPad software curve-fitting analysis was used to obtain EC50 values.

[3] = test system: FGFR2IIIb-expressing Ba/F3 cells; test: ADCC assay with human PBMC effectors, LDH release (Example 3); assay type: cell-based; details: E/T 25:1, 16 hours
Experimental: Ba/F3 FGFR2IIIb-expressing target cells were produced as follows. Ba/F3 cells acquired from Leibniz-Institut DSMZ-Deutsche Sammlung von Mikroorganismen and Zellkulturen GmbH (DSMZ, cat #ACC300, Braunschweig, Germany) were maintained in RPMI (Mediatech, cat #10-041-CV, Manassas, Va.), supplemented with 10% fetal bovine serum (Mediatech, cat #35-010-CV), 1 ng/mL murine IL-3 (Peprotech, cat #213-13, Rocky Hill, N.J.), 1×BME (Invitrogen, cat #1047574, Grand Island, N.Y.), and 1× Penicillin-streptomycin (Mediatech cat #30-002-C1). […]
ADCC assays were conducted using effector cells from 3 independent donors on 3 different days. […] Cytotoxicity was determined by quantifying LDH release as per the manufacturer's instructions (CytoTox Non Radioactive Cytotoxicity Assay, Promega, Madison, Wis.).
(§4) Maximal lysis was determined in the presence of 5% Triton X-100, and spontaneous release was determined in the absence of antibody. Percentage of specific lysis was calculated as follows, as a percentage of maximal lysis less spontaneous release: (experimental−spontaneous release)/(maximal−spontaneous release)×100=% specific lysis

OCUM-2M cells [4] = test: as above; assay type: cell-based; details: data not shown
Experimental: (§5) MFM-223 cells were obtained from the Health Protection Agency, UK; OCUM-2M cells were obtained from Osaka City University, Osaka, Japan; and KATO III cells were obtained from ATCC, Rockville, Md. All cells were cultured using standard methods. Freshly isolated PMBC from healthy donors were obtained from AllCells, Emeryville, Calif.
(§6) ADCC assays were conducted using effector cells from 3 independent donors on 3 different days. ADCC assay testing was performed using freshly isolated human PBMCs as effector cells at an effector to target (E/T) cell ratio of 25:1. The target cells were incubated for 16 hours in the presence of effectors and increasing concentrations of antibody. The ADCC assay was validated using 2 positive control antibodies, HERCEPTIN® on SKOV-3 target cells and RITUXIN® on Raji target cells. A fully human IgG1 negative control antibody (Eureka Therapeutics, Catalog ET901, Emeryville, Calif.) was used for non-specific cell cytotoxicity. Cytotoxicity was determined by quantifying LDH release as per the manufacturer's instructions (CytoTox Non Radioactive Cytotoxicity Assay, Promega, Madison, Wis.).
as §4

MFM 223 cells = test: as above; assay type: cell-based; details: data not shown
Experimental: as §5, §6, §4

KATO III cells = test: as above; assay type: cell-based; details: E/T 25:1, 16 hours; data not shown
Experimental: as §5, §6, §4

[5] = test system: Ba/F3 FGFR2IIIb-expressing target cells; test: ADCC assay, EC50 by curve fitting (Example 5); assay type: cell-based; details: FIG. 9
Experimental: as §2, §3

[6] = test system: MFM-223 human breast cancer xenograft; test: MFM-223 breast cancer xenograft model; assay type: in vivo, CB17 SCID mice; details: 5 mg/kg
Excerpt: Six week old female CB17 SCID mice were purchased from Charles River Laboratories (Wilmington, Mass.) and were acclimated for 1 week before the start of the study. Human gastric carcinoma cell line OCUM-2M or breast carcinoma cell line MFM-223 were used as the tumor models. OCUM-2M was purchased from Public University Corporation Osaka City University (OCU, Osaka, Japan), and MFM-223 was purchased from Culture Collections, Public Health England (98050130, HPA Culture Collections, Salisbury, UK). The cells were cultured for up to three passages in complete growth medium to expand for implantation. […]
When the cultured cells reached 85-90% confluence, cells were harvested and resuspended in cold Ca^2+ and Mg^2+ free phosphate buffered saline (PBS) containing 50% Matrigel (BD BioSciences, San Jose, Calif.). […] Mice were monitored twice weekly following cell implantation for tumor growth. Tumor size was measured according to the formula: Tumor size (mm^3)=(width (mm)×length (mm)^2)/2. […]
as §1, with “Mice were euthanized when the subcutaneous tumor volumes exceeded 2000 mm^3 or when the tumors became excessively necrotic.” left out

Row | EC50 (ADCC) (OCUM-2M cells [2]) | Substance | tumor response [1] | specific lysis compared with αFGFR2bF [3] | final tumor size compared with αFGFR2bF ([1]; 3 mg/kg) | tumor growth compared with αFGFR2bF ([1]; 3 mg/kg) | tumor regression and durability compared with αFGFR2bF ([1]; 3 mg/kg) | durability of response compared with αFGFR2bF ([1]; 10 mg/kg) | final tumor size compared with αFGFR2bF ([1]; 10 mg/kg) | final tumor size ([1]; 1 to 5 mg/kg, higher doses more potent) | tumor growth suppression ([1]; 2, 1.5, and 1 mg/kg) | tumor growth suppression ([1]; 3 and 5 mg/kg) | tumor growth ([1]; all doses: 1, 1.5, 2, 3, or 5 mg/kg, start at about 100 mm^3) | ADCC activity compared with αFGFR2bF (OCUM-2M cells [4]; E/T 25:1, 16 hours) | maximal specific lysis compared with αFGFR2bF (OCUM-2M cells [4]) | ADCC activity compared with αFGFR2bF (MFM 223 cells; E/T 25:1, 16 hours) | maximal specific lysis compared with αFGFR2bF (MFM 223 cells) | ADCC activity compared with αFGFR2bF (KATO III cells) | ADCC potency compared with αFGFR2bF [5] | final tumor size compared to albumin control [6] | tumor growth compared to albumin control ([6]; start at about 80 mm^3)
1 | 0.03 µg/mL | αFGFR2bF: fucosylated anti-FGFR2IIIb humanized antibody with the same amino acid sequences as αFGFR2bA, produced in CHOK1SV cells [reference compound] | immediate tumor regression | – | – | – | – | – | – | – | – | – | – | – | – | – | – | – | – | – | –
2 | 0.005 µg/mL | αFGFR2bA: afucosylated humanized anti-FGFR2IIIb monoclonal antibody produced in Potelligent CHOK1SV cells; heavy chain SEQ ID NO: 2, light chain SEQ ID NO: 3 | immediate tumor regression | greater specific lysis | notably reduced final OCUM-2M tumor size | reduced tumor growth | greater tumor regression and durable response | more durable response | significantly reduced final OCUM-2M tumor size | reduced final OCUM-2M tumor size | reduced growth suppression | greatest suppression and durable response | inhibited tumor growth | greater ADCC activity at lower concentrations | comparable | greater ADCC activity at lower concentrations | comparable | greater ADCC activity at lower concentrations | higher potency | significantly reduced final MFM-223 tumor size | dramatically reduced growth of MFM-223 tumors
